The text below walks through data of patent US11365192B2, “Pyridine compound substituted with azole” (TAISHO PHARMACEUTICAL CO., LTD., priority 2017, dated 2022).

The target of series [1] is human CYP4F2 (Homo sapiens (Human), UniProt P78329). As to the kind of experiment: Inhibition test against 20-HETE producing enzyme CYP4F2 (luciferine derivative, luminescence). The format is biochemical. The gist of the method:
(§1)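 E. coli membranes (100 μg/mL protein) expressing human enzyme, room temperature 60 min, luciferin-derivative luminescence; IC50 from % inhibition. CYP4F2: 50 mM KPO4 pH 7.4, 2.5 μM substrate, 1 mM NADPH. CYP4A11: 100 mM Tris-HCl pH 7.5, 60 μM substrate, NADP+/glucose 6-phosphate/G6PDH regenerating system, 3.3 mM MgCl2.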

Series [2] has as its target human CYP4A11 (Homo sapiens (Human), UniProt Q02928). Put plainly: Inhibition test against 20-HETE producing enzyme CYP4A11 (luciferine derivative, luminescence). Format: biochemical. Put shortly:
as §1

Series [3] has as its target 20-HETE producing enzymes, human kidney microsome. Put plainly: Inhibition test against 20-HETE producing enzymes using human kidney microsomes (LC-MS/MS). The format is biochemical. The conditions noted are these: for IC50: human kidney microsome 250 μg/mL protein, 20 μM arachidonic acid, 37° C. 45 minutes, LC-MS/MS; for inhibitory activities against 20-HETE producing enzymes compared to compound A and compound B: comparison with compound A and compound B of WO03/022821, human kidney microsomes. As to the method:
(1) Inhibition Test for Each Compound of the Present Invention Against 20-HETE Producing Enzymes Using Human Kidney Microsomes
The reaction solution containing each compound [final concentration of 100 mM, KPO4 (pH 7.4), 20 μM Arachidonic acid, 4 mM NADPH] was added to the human kidney microsome (250 μg/mL protein). Following this, the microsome was left to stand at 37° C. for 45 minutes to perform 20-HETE producing reaction. After adding formic acid to stop the reaction, 9 times amount of acetonitrile was added, and deproteinization was carried out by centrifugation (1000 rpm, 4° C., 10 minutes). After that, the peak area value of 20-HETE was measured using a liquid chromatograph-tandem mass spectrometer (LC-MS/MS), and by using that value, the percent inhibition of 20-HETE producing enzyme (%) was calculated according to the equation described below, and the 50% inhibitory concentration (IC50 value) for each compound was calculated. Percent inhibition of 20-HETE producing enzyme (%)=[1−(A−B)/(C−B)]*100
A: Peak area value of 20-HETE/peak area value of internal standard substance with addition of compound
B: Peak area value of 20-HETE/peak area value of internal standard substance without addition of compound and NADPH
C: Peak area value of 20-HETE/peak area value of internal standard substance without addition of compound
(3) Inhibition Test for Compound a and Compound B Disclosed in WO03/022821 Against 20-HETE Producing Enzymes Using Human Kidney Microsomes
For compound A and compound B disclosed in WO03/022821, which have been described above, the 50% inhibitory concentration (IC50 value) against 20-HETE producing enzymes was calculated according to the method described in Test Example 2.
On the other hand, as described above, in Test Example 2, nonradioactive arachidonic acid was used as a substrate for 20-HETE producing reaction, and the amount of 20-HETE produced was measured using LC-MS/MS. In this case, the concentration of arachidonic acid, the substrate, is 20 μM.
In recent years, it is recommended that the substrate concentration for calculating the IC50 value be set at the Km value (Assay Guidance Manual, Sittampalam et. al. (URL: http://www.ncbi.nlm.nih.gov/books/NBK53196/)). According to this, in Test Example 2 described above, human kidney microsomes were used to calculate the Km value, and the calculated Km value of 20 μM was set as the concentration of the substrate, arachidonic acid.

In series [4] the target is human CYP4F22 (Homo sapiens (Human), UniProt Q6NT55). Put plainly: CYP4F22 selectivity test. The format is biochemical. The conditions noted are these: cell membrane fraction expressing human CYP4F22, 14 μM luciferine derivative, 50 minutes. As to the method: (1) CYP4F22 Selectivity Test for Each Compound of the Present Invention
(§2) The reaction solution containing each compound [final concentration of 100 mM KPO4 (pH 7.4), 14 μM luciferine derivative, and 1 mM NADPH] was added to a cell membrane fraction (30 μg/mL protein) in which human CYP4F22 had been expressed. Following this, the cell membrane fraction was left to stand at room temperature for 50 minutes to perform an enzymatic reaction. After the reaction, a luciferine detection reagent was added, and the luminescence value was measured using a plate reader. By using that value, the percent inhibition of the enzymatic reaction of CYP4F22(%) was calculated according to the equation described below, and the 50% inhibitory concentration (IC50 value) for each compound was calculated. Percent inhibition of CYP4F22 enzyme (%)=[1−(A−B)/(C−B)]*100
(§3) A: Luminescence value with addition of compound
(§4) B: Luminescence value without addition of compound and enzyme
(§5) C: Luminescence value without addition of compound

For series [5], the target named is human CYP4V2 (Homo sapiens (Human), UniProt Q6ZWL3). As to the kind of experiment: CYP4V2 selectivity test. The conditions noted are these: cell membrane fraction expressing human CYP4V2, 7 μM luciferine derivative, 40 minutes. Format: biochemical. On the procedure: (3) CYP4V2 Selectivity Test for Each Compound of the Present Invention
as §2, with “7.4), 7” for “7.4), 14”, “fraction (38” for “fraction (30”, “human CYP4V2” for “human CYP4F22”, “for 40” for “for 50”, “of CYP4V2(%)” for “of CYP4F22(%)”, “of CYP4V2” for “of CYP4F22”
as §3, §4, §5

Series [6] is described as follows: Evaluation test for in vivo stability (half-life in plasma after intravenous administration to rats). Further details: species or system rats (Sprague-Dawley). As to conditions: rats (SD, male), 0.5 mg/kg, half-life in plasma from CL and Vdss. As to the method: (1) Evaluation Test for In Vivo Stability of Each Compound of the Present Invention
Each compound was dissolved in an aqueous solution of 10% HP-β-CD (0.5 mg/mL), and intravenously administered to rats (Sprague-Dawley (SD), male, 7-week-old, fasted, dose: 0.5 mg/kg). Blood was collected from the tail vein at each time of blood collection, and the plasma was collected by centrifugation. Quantitative analysis of each compound in plasma was performed using LC-MS/MS. Half-life in plasma (t1/2eff) was calculated from clearance (CL) and distribution volume (Vdss) calculated through noncompartmental analysis with Phoenix WinNonlin (Certara, L.P.), according to the equation described below. t1/2eff=LN(2)/(CL/Vdss)

[7] abbreviates: human CYP4F2, luciferine derivative, luminescence.
The mark [8] stands for this setting: human CYP4A11, luciferine derivative, luminescence.
[9] abbreviates: E. coli membrane fraction expressing human CYP4F2, 2.5 μM luciferine derivative, room temperature 60 minutes.
Setting [10] is: E. coli membrane fraction expressing human CYP4A11, 60 μM luciferine derivative, room temperature 60 minutes.

Sequence of human CYP4V2 (Q6ZWL3 whole entry): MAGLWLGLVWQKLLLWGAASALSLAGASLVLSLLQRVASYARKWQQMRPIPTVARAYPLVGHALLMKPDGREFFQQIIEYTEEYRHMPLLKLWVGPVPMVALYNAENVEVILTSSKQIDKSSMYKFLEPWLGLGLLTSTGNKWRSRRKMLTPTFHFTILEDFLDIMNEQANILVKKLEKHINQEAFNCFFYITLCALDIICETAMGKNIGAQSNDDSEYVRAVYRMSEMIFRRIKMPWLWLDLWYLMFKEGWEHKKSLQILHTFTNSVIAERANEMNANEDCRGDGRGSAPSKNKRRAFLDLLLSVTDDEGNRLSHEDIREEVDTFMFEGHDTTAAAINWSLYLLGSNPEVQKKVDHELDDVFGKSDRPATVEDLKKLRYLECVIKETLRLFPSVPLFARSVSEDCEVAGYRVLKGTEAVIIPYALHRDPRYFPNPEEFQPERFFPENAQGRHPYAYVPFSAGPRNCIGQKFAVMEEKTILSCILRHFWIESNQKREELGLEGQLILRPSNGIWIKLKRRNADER
Sequence of human CYP4F2 (P78329 5-520): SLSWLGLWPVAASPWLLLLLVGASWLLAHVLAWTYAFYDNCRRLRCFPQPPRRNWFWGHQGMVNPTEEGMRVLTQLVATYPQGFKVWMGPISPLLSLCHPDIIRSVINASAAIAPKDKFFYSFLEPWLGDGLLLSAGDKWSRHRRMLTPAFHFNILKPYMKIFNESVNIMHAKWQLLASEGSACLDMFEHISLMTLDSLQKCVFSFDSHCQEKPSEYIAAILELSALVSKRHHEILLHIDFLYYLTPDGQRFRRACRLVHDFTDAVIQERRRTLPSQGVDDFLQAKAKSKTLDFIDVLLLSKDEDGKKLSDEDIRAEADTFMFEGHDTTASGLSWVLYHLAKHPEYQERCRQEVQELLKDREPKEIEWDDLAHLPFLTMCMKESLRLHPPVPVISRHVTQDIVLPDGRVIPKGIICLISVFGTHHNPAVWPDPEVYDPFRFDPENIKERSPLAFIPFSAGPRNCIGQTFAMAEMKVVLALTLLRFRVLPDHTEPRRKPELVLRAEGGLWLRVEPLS
Sequence of human CYP4A11 (Q02928 5-519): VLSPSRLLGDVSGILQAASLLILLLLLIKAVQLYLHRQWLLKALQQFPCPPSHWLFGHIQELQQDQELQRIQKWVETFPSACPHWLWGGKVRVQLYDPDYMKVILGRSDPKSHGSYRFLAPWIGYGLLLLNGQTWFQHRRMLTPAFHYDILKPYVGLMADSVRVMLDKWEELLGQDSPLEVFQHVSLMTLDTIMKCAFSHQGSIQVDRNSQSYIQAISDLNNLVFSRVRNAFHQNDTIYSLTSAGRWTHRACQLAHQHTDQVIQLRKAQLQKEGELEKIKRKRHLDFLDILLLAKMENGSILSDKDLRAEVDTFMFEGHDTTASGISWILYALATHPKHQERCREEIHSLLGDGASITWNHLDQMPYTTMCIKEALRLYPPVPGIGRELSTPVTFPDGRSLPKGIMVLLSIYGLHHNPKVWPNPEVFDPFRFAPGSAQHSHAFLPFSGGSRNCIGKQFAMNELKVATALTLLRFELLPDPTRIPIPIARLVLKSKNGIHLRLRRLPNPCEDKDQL
Sequence of human CYP4F22 (Q6NT55 whole entry): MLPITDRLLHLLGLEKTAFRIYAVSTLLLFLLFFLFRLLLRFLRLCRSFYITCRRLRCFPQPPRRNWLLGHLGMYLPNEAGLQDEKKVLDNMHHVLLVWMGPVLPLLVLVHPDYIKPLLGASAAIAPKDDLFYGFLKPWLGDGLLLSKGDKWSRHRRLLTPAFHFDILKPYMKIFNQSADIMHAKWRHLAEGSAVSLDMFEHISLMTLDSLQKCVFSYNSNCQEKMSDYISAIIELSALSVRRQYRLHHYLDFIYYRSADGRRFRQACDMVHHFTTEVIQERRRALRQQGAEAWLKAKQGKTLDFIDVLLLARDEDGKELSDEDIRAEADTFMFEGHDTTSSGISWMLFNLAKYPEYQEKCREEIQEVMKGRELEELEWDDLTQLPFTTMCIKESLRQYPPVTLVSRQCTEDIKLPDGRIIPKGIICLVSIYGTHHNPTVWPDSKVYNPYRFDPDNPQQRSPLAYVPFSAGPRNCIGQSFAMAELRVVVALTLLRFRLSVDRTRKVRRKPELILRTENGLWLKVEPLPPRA

One may read the IC50 as the concentration that inhibits the measured activity by half. Turning to `O=C(O)C1CC1c1ccc(CCOc2ccc(-c3ccn[nH]3)nc2)c(F)c1` (single isomer, unassigned) [Example 71-18], the IC50 came out at 83 nM in series [1] (setting [7]); 110 nM in series [2] (setting [8]); 6 nM in series [3]; 1900 nM in series [4]; 2100 nM in series [5].

For `O=C(O)C1CC1c1cccc(COc2ccc(-c3ccn[nH]3)nc2)c1F` (single isomer, unassigned) [Example 71-46], the concentration for half-maximal inhibition (IC50) in series [1] (setting [7]) stood at 240 nM; in series [2] (setting [8]), 19 nM; in series [3], 12 nM; in series [4] it was 1300 nM; in series [5], 620 nM. For the same compound, in series [6], the t1/2eff was found to be 3.6 h.

On to `CC(C)(OCCCCCCCOc1ccc(-c2ccn[nH]2)nc1)C(=O)O` [Example 15-1, 2-Methyl-2-[7-[[6-(1H-pyrazol-5-yl)-3-pyridinyl]oxy]heptoxy]propanoic Acid], for which the IC50 was found to be 220 nM in series [1] (setting [9]); 120 nM in series [2] (setting [10]); 18 nM in series [3]; 2900 nM in series [4]; 1000 nM in series [5]. For the same compound, in series [3], the “inhibitory activities against 20-HETE producing enzymes compared to compound A and compound B” value is on record as “stronger inhibitory activities”. This compound also displayed a t1/2eff in series [6] of 2.4 h.

As for `O=C(O)C1(OCCCCCCCCOc2ccc(-c3ccn[nH]3)nc2)CCOCC1` [Example 68-1, 4-[8-[[6-(1H-Pyrazol-5-yl)-3-pyridinyl]oxy]octoxy]-4-oxanecarboxylic Acid], the IC50 in series [1] (setting [9]) worked out at 39 nM; in series [2] (setting [10]) it was 620 nM; in series [3] it was 6.9 nM. Besides, the “inhibitory activities against 20-HETE producing enzymes compared to compound A and compound B” value in series [3] is listed as “stronger inhibitory activities”.

With `O=C(O)C1CC1c1cccc(CCOc2ccc(-c3ccn[nH]3)nc2)c1` (stereo not shown) [Example 70-7], the half-inhibitory concentration (IC50) in series [1] (setting [7]) was found to be 320 nM; in series [2] (setting [8]), 50 nM; in series [3], 16 nM; in series [4] it was 1400 nM; in series [5] it was 2900 nM.

Turning to `O=C(O)[C@@H]1C[C@@H]1c1ccc(CCOc2ccc(-c3ccn[nH]3)nc2)cc1` [Example 70-10-1], the IC50 stood at 120 nM in series [1] (setting [7]); 160 nM in series [2] (setting [8]); 6.4 nM in series [3]; 2300 nM in series [4]; 3300 nM in series [5].

Turning to `O=C(O)C1(OCCCCCCCOc2ccc(-c3ccn[nH]3)nc2)COC1` [Example 71-6], the IC50 in series [1] (setting [7]) came to 100 nM; in series [2] (setting [8]), 230 nM; in series [3], 11 nM; in series [4] it was 370 nM; in series [5], 1200 nM.

In the case of `O=C(O)C1(OCCCCCCCOc2ccc(-c3ccn[nH]3)nc2)CCC1` [Example 72-2], the IC50 in series [1] (setting [7]) stood at 97 nM; in series [2] (setting [8]) it was 120 nM; in series [3] it was 4.7 nM; in series [4], 2500 nM; in series [5], 510 nM. In addition, in series [6], the t1/2eff is listed as 2.4 h.

As to `O=C(O)C1(CCCCCCCCOc2ccc(-c3ccn[nH]3)nc2)COC1` [Example 72-3], the IC50 in series [1] (setting [7]) worked out at 43 nM; in series [2] (setting [8]), 130 nM; in series [3], 4 nM; in series [4] it was 3800 nM; in series [5] it was 1500 nM. This compound returned a t1/2eff in series [6] of 1.4 h.

Turning to `O=C(O)C1(CCCCCCCCOc2ccc(-c3ccn[nH]3)nc2)CS(=O)(=O)C1` [Example 73-1, 1,1-Dioxo-3-[8-[6-(1H-pyrazol-5-yl)pyridin-3-yl]oxyoctyl]thietane-3-carboxylic Acid], the IC50 in series [1] (setting [7]) amounted to 12 nM; in series [2] (setting [8]), 160 nM; in series [3], 1.7 nM; in series [4], 2300 nM; in series [5], 660 nM.

In the case of `O=C(O)C1CC1c1cc(CCOc2ccc(-c3ccn[nH]3)nc2)ccc1F` (stereo not shown) [Example 74-2], the IC50 in series [1] (setting [7]) stood at 130 nM; in series [2] (setting [8]) it was 53 nM; in series [3] it was 20 nM; in series [4], 280 nM; in series [5], 2300 nM.

For the compound `O=C(O)[C@H]1C[C@@H]1c1cccc(CCOc2ccc(-c3ccn[nH]3)nc2)c1F` [Example 74-4], the IC50 in series [1] (setting [7]) was determined as 58 nM; in series [2] (setting [8]) it was 82 nM; in series [3] it was 4.4 nM; in series [4], 480 nM; in series [5], 2300 nM. The compound also returned a t1/2eff in series [6] of 3.5 h.

Regarding `O=C(O)[C@@H]1C[C@H]1c1cccc(CCOc2ccc(-c3ccn[nH]3)nc2)c1F` [Example 74-5], the IC50 in series [1] (setting [7]) turned out to be 80 nM; in series [2] (setting [8]) it was 88 nM; in series [3], 9.1 nM; in series [4] it was 3000 nM; in series [5], 5000 nM.
